± gives the uncertainty stated by the source.
Test: xn = mol fraction of the nth substance listed

SMILES: CC(C)Cc1ccc(C(C)C(=O)O)cc1 (centres undefined) + CCCO
- viscosity (298.15 K, 100 kPa, x1 = 0.00242): 1.95 ± 0.079 mPa·s
- viscosity (298.15 K, 100 kPa, x1 = 0.00365): 1.956 ± 0.08 mPa·s
- viscosity (298.15 K, 100 kPa, x1 = 0.00483): 1.963 ± 0.08 mPa·s
- viscosity (298.15 K, 100 kPa, x1 = 0.006021): 1.971 ± 0.08 mPa·s
- viscosity (298.15 K, 100 kPa, x1 = 0.007225): 1.979 ± 0.081 mPa·s
- viscosity (298.15 K, 100 kPa, x1 = 0.0096): 1.995 ± 0.081 mPa·s
- viscosity (298.15 K, 100 kPa, x1 = 0.012): 2.014 ± 0.082 mPa·s
- viscosity (308.15 K, 100 kPa, x1 = 0.00242): 1.529 ± 0.062 mPa·s
- viscosity (308.15 K, 100 kPa, x1 = 0.00365): 1.538 ± 0.063 mPa·s
- viscosity (308.15 K, 100 kPa, x1 = 0.00483): 1.548 ± 0.063 mPa·s
- viscosity (308.15 K, 100 kPa, x1 = 0.006021): 1.56 ± 0.064 mPa·s
- viscosity (308.15 K, 100 kPa, x1 = 0.007225): 1.575 ± 0.064 mPa·s
- viscosity (308.15 K, 100 kPa, x1 = 0.0096): 1.605 ± 0.065 mPa·s
- viscosity (308.15 K, 100 kPa, x1 = 0.012): 1.639 ± 0.067 mPa·s

SMILES: CC[n+]1ccccc1.N#C[N-]C#N + CCCO
- viscosity (313.15 K, 100 kPa, x1 = 0.8905): 9.945 ± 1 mPa·s

SMILES: CNc1ccccc1 + CCCO
- viscosity (303.15 K, 101.33 kPa, x1 = 0.1008): 1.608 ± 0.026 mPa·s
- viscosity (303.15 K, 101.33 kPa, x1 = 0.1995): 1.532 ± 0.025 mPa·s
- viscosity (303.15 K, 101.33 kPa, x1 = 0.2999): 1.502 ± 0.025 mPa·s
- viscosity (303.15 K, 101.33 kPa, x1 = 0.4015): 1.494 ± 0.025 mPa·s
- viscosity (303.15 K, 101.33 kPa, x1 = 0.5012): 1.502 ± 0.025 mPa·s
- viscosity (303.15 K, 101.33 kPa, x1 = 0.6016): 1.527 ± 0.025 mPa·s
- viscosity (303.15 K, 101.33 kPa, x1 = 0.7016): 1.551 ± 0.026 mPa·s
- viscosity (303.15 K, 101.33 kPa, x1 = 0.8003): 1.61 ± 0.027 mPa·s
- viscosity (303.15 K, 101.33 kPa, x1 = 0.9016): 1.688 ± 0.028 mPa·s
- viscosity (308.15 K, 101.33 kPa, x1 = 0.1008): 1.433 ± 0.023 mPa·s
- viscosity (308.15 K, 101.33 kPa, x1 = 0.1995): 1.37 ± 0.022 mPa·s
- viscosity (308.15 K, 101.33 kPa, x1 = 0.2999): 1.345 ± 0.022 mPa·s
- viscosity (308.15 K, 101.33 kPa, x1 = 0.4015): 1.337 ± 0.022 mPa·s
- viscosity (308.15 K, 101.33 kPa, x1 = 0.5012): 1.347 ± 0.022 mPa·s
- viscosity (308.15 K, 101.33 kPa, x1 = 0.6016): 1.368 ± 0.023 mPa·s
- viscosity (308.15 K, 101.33 kPa, x1 = 0.7016): 1.392 ± 0.023 mPa·s
- viscosity (308.15 K, 101.33 kPa, x1 = 0.8003): 1.446 ± 0.024 mPa·s
- viscosity (308.15 K, 101.33 kPa, x1 = 0.9016): 1.512 ± 0.025 mPa·s
- viscosity (313.15 K, 101.33 kPa, x1 = 0.1008): 1.29 ± 0.021 mPa·s
- viscosity (313.15 K, 101.33 kPa, x1 = 0.1995): 1.235 ± 0.02 mPa·s
- viscosity (313.15 K, 101.33 kPa, x1 = 0.2999): 1.21 ± 0.02 mPa·s
- viscosity (313.15 K, 101.33 kPa, x1 = 0.4015): 1.204 ± 0.02 mPa·s
- viscosity (313.15 K, 101.33 kPa, x1 = 0.5012): 1.219 ± 0.021 mPa·s
- viscosity (313.15 K, 101.33 kPa, x1 = 0.6016): 1.235 ± 0.021 mPa·s
- viscosity (313.15 K, 101.33 kPa, x1 = 0.7016): 1.26 ± 0.021 mPa·s
- viscosity (313.15 K, 101.33 kPa, x1 = 0.8003): 1.306 ± 0.022 mPa·s
- viscosity (313.15 K, 101.33 kPa, x1 = 0.9016): 1.347 ± 0.023 mPa·s
- viscosity (318.15 K, 101.33 kPa, x1 = 0.1008): 1.161 ± 0.019 mPa·s
- viscosity (318.15 K, 101.33 kPa, x1 = 0.1995): 1.116 ± 0.019 mPa·s
- viscosity (318.15 K, 101.33 kPa, x1 = 0.2999): 1.096 ± 0.018 mPa·s
- viscosity (318.15 K, 101.33 kPa, x1 = 0.4015): 1.092 ± 0.018 mPa·s
- viscosity (318.15 K, 101.33 kPa, x1 = 0.5012): 1.097 ± 0.019 mPa·s
- viscosity (318.15 K, 101.33 kPa, x1 = 0.6016): 1.123 ± 0.019 mPa·s
- viscosity (318.15 K, 101.33 kPa, x1 = 0.7016): 1.145 ± 0.019 mPa·s
- viscosity (318.15 K, 101.33 kPa, x1 = 0.8003): 1.188 ± 0.02 mPa·s
- viscosity (318.15 K, 101.33 kPa, x1 = 0.9016): 1.247 ± 0.021 mPa·s
- viscosity (323.15 K, 101.33 kPa, x1 = 0.1008): 1.051 ± 0.018 mPa·s
- viscosity (323.15 K, 101.33 kPa, x1 = 0.1995): 1.01 ± 0.017 mPa·s
- viscosity (323.15 K, 101.33 kPa, x1 = 0.2999): 1 ± 0.017 mPa·s
- viscosity (323.15 K, 101.33 kPa, x1 = 0.4015): 0.9995 ± 0.017 mPa·s
- viscosity (323.15 K, 101.33 kPa, x1 = 0.5012): 1.012 ± 0.017 mPa·s
- viscosity (323.15 K, 101.33 kPa, x1 = 0.6016): 1.026 ± 0.018 mPa·s
- viscosity (323.15 K, 101.33 kPa, x1 = 0.7016): 1.047 ± 0.018 mPa·s
- viscosity (323.15 K, 101.33 kPa, x1 = 0.8003): 1.091 ± 0.019 mPa·s
- viscosity (323.15 K, 101.33 kPa, x1 = 0.9016): 1.142 ± 0.02 mPa·s

SMILES: COC(=O)OC + CCCO
- viscosity (293.15 K, 101.3 kPa, x1 = 0.0508): 1.875 ± 0.087 mPa·s
- viscosity (293.15 K, 101.3 kPa, x1 = 0.0875): 1.683 ± 0.079 mPa·s
- viscosity (293.15 K, 101.3 kPa, x1 = 0.1647): 1.362 ± 0.065 mPa·s
- viscosity (293.15 K, 101.3 kPa, x1 = 0.2944): 1.024 ± 0.05 mPa·s
- viscosity (293.15 K, 101.3 kPa, x1 = 0.3858): 0.885 ± 0.044 mPa·s
- viscosity (293.15 K, 101.3 kPa, x1 = 0.544): 0.751 ± 0.039 mPa·s
- viscosity (293.15 K, 101.3 kPa, x1 = 0.6026): 0.716 ± 0.037 mPa·s
- viscosity (293.15 K, 101.3 kPa, x1 = 0.7041): 0.666 ± 0.035 mPa·s
- viscosity (293.15 K, 101.3 kPa, x1 = 0.89): 0.61 ± 0.033 mPa·s
- viscosity (293.15 K, 101.3 kPa, x1 = 0.9015): 0.606 ± 0.033 mPa·s
- viscosity (293.15 K, 101.3 kPa, x1 = 0.951): 0.608 ± 0.033 mPa·s
- viscosity (298.15 K, 101.3 kPa, x1 = 0.0517): 1.675 ± 0.078 mPa·s
- viscosity (298.15 K, 101.3 kPa, x1 = 0.0898): 1.493 ± 0.07 mPa·s
- viscosity (298.15 K, 101.3 kPa, x1 = 0.1903): 1.147 ± 0.056 mPa·s
- viscosity (298.15 K, 101.3 kPa, x1 = 0.2896): 0.936 ± 0.047 mPa·s
- viscosity (298.15 K, 101.3 kPa, x1 = 0.3944): 0.803 ± 0.041 mPa·s
- viscosity (298.15 K, 101.3 kPa, x1 = 0.498): 0.725 ± 0.038 mPa·s
- viscosity (298.15 K, 101.3 kPa, x1 = 0.5993): 0.673 ± 0.035 mPa·s
- viscosity (298.15 K, 101.3 kPa, x1 = 0.7016): 0.631 ± 0.034 mPa·s
- viscosity (298.15 K, 101.3 kPa, x1 = 0.8007): 0.598 ± 0.032 mPa·s
- viscosity (298.15 K, 101.3 kPa, x1 = 0.8994): 0.579 ± 0.031 mPa·s
- viscosity (298.15 K, 101.3 kPa, x1 = 0.949): 0.576 ± 0.031 mPa·s
- viscosity (303.15 K, 101.3 kPa, x1 = 0.0728): 1.404 ± 0.067 mPa·s
- viscosity (303.15 K, 101.3 kPa, x1 = 0.0829): 1.367 ± 0.065 mPa·s
- viscosity (303.15 K, 101.3 kPa, x1 = 0.184): 1.072 ± 0.052 mPa·s
- viscosity (303.15 K, 101.3 kPa, x1 = 0.2605): 0.919 ± 0.046 mPa·s
- viscosity (303.15 K, 101.3 kPa, x1 = 0.3758): 0.769 ± 0.039 mPa·s
- viscosity (303.15 K, 101.3 kPa, x1 = 0.4849): 0.685 ± 0.036 mPa·s
- viscosity (303.15 K, 101.3 kPa, x1 = 0.6278): 0.613 ± 0.033 mPa·s
- viscosity (303.15 K, 101.3 kPa, x1 = 0.7071): 0.594 ± 0.032 mPa·s
- viscosity (303.15 K, 101.3 kPa, x1 = 0.8061): 0.569 ± 0.031 mPa·s
- viscosity (303.15 K, 101.3 kPa, x1 = 0.9018): 0.554 ± 0.03 mPa·s
- viscosity (303.15 K, 101.3 kPa, x1 = 0.9507): 0.542 ± 0.03 mPa·s
- viscosity (313.15 K, 101.3 kPa, x1 = 0.0498): 1.198 ± 0.058 mPa·s
- viscosity (313.15 K, 101.3 kPa, x1 = 0.0973): 1.066 ± 0.052 mPa·s
- viscosity (313.15 K, 101.3 kPa, x1 = 0.1985): 0.86 ± 0.043 mPa·s
- viscosity (313.15 K, 101.3 kPa, x1 = 0.3015): 0.721 ± 0.037 mPa·s
- viscosity (313.15 K, 101.3 kPa, x1 = 0.4025): 0.639 ± 0.034 mPa·s
- viscosity (313.15 K, 101.3 kPa, x1 = 0.5021): 0.584 ± 0.031 mPa·s
- viscosity (313.15 K, 101.3 kPa, x1 = 0.6029): 0.546 ± 0.03 mPa·s
- viscosity (313.15 K, 101.3 kPa, x1 = 0.7038): 0.521 ± 0.029 mPa·s
- viscosity (313.15 K, 101.3 kPa, x1 = 0.8033): 0.5 ± 0.028 mPa·s
- viscosity (313.15 K, 101.3 kPa, x1 = 0.9073): 0.489 ± 0.027 mPa·s
- viscosity (313.15 K, 101.3 kPa, x1 = 0.951): 0.489 ± 0.027 mPa·s

Reference: the CheMixHub viscosity set
